Literature values as cited in patent US20150104528A1, “TREATMENT FOR DEPRESSION AND OTHER MENTAL CONDITIONS WITH SYNTHETIC ISOTOPE-MODIFIED LITHIUM” (priority 2013, published 2015).

Test system: female mother rats
Conditions: female mother rats fed the substance; same dosage level for both groups

## [6Li] [lithium-6]
  state of alertness compared to control rats fed a placebo: very high
